The numbers were not newly measured in patent US20260078132A1, “SOLID FORMS OF AN INHIBITOR OF HIF AND METHODS OF USING SAME” (ONCOSPHERIX INC., priority 2022, published 2026), which cites them from elsewhere.

Data set [1] has as its target T1, p300 (Homo sapiens, UniProt Q09472).
Data set [2] has as its target T1, p300. The source holds these as a separate data set.

T1 sequence (Q09472 whole entry, species assumed): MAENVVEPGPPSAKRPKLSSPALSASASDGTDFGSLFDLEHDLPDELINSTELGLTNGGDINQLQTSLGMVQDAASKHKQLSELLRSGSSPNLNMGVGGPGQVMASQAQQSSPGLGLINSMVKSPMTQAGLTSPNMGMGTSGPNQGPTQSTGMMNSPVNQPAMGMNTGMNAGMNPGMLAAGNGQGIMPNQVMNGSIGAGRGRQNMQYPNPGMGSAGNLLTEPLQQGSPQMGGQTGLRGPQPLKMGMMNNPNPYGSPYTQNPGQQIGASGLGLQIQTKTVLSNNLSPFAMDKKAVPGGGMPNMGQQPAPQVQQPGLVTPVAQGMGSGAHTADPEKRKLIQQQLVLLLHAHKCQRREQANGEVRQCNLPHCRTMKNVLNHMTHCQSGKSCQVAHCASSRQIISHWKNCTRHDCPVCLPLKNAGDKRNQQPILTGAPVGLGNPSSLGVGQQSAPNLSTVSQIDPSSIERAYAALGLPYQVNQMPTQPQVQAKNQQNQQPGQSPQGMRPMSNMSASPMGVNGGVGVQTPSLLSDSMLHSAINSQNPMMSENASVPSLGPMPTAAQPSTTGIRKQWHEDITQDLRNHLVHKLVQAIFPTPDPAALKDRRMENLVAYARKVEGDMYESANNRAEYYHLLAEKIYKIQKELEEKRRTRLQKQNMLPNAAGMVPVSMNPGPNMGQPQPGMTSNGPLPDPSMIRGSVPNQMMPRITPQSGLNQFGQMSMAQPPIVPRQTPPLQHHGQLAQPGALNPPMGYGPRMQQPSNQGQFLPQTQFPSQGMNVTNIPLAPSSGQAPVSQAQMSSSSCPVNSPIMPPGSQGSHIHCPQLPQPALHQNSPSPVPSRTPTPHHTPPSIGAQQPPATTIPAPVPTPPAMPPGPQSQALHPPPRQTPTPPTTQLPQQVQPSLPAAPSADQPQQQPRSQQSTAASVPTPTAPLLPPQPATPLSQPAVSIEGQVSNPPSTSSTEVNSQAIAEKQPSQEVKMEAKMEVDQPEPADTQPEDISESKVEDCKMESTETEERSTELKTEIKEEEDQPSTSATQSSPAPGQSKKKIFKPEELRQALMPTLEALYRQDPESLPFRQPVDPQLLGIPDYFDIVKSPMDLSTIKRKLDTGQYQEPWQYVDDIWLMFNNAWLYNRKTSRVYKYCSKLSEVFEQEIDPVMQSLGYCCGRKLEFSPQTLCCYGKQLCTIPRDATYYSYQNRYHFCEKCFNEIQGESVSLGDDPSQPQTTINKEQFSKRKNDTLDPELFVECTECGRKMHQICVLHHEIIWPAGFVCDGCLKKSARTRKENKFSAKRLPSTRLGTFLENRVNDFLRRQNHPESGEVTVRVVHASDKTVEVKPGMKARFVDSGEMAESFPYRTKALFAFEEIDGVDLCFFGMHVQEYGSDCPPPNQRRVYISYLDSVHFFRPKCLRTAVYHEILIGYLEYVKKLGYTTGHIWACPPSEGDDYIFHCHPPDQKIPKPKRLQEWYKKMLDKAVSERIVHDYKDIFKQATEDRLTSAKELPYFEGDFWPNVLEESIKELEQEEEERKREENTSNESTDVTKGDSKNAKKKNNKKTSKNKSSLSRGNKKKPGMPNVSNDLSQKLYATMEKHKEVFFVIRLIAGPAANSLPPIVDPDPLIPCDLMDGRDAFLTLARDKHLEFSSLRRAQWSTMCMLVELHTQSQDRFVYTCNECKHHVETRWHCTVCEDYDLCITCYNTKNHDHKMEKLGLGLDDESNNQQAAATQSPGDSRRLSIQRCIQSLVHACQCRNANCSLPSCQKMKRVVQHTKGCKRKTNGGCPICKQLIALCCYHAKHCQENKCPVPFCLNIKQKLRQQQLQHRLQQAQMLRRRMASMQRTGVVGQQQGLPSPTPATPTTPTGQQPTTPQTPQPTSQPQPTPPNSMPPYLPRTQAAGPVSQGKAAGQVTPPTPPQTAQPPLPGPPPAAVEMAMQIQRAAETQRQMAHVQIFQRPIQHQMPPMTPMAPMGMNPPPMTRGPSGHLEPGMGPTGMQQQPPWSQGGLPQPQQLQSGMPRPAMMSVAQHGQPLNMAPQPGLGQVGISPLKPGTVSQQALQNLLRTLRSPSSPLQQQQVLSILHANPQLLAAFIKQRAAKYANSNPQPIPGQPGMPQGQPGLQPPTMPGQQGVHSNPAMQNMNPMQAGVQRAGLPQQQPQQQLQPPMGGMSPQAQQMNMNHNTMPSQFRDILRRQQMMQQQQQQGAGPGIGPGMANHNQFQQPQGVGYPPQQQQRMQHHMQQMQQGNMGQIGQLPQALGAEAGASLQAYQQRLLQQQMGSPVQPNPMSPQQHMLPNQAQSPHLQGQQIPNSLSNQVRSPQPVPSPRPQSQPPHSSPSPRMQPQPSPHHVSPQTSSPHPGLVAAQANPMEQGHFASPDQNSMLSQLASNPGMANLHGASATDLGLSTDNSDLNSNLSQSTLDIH

`COc1ccc(S(=O)(=O)N(Cc2ccc3c(n2)C=CC(C)(C)O3)C2CCC2)cc1OC` [Compound 9, N-Cyclobutyl-N-((2,2-dimethyl-2H-pyrano[3,2-b]pyridin-6-yl)methyl)-3,4-dimethoxybenzenesulfonamide]: the “pull-down of p300” value on p300 [1] is “pull-down of p300 by Compound 9”. Moreover, the “binding to p300” value on p300 [2] is “binding of Compound 9 to p300”.
